{
  "source": "patent US20090098044A1",
  "about": "“SOLID PARTICLES FROM CONTROLLED DESTABILISATION OF MICROEMULSIONS” (Australian Nuclear Science and Technology Organisation, priority 2004, published 2009)",
  "assay_type_in_all_cases": "physicochemical",
  "key": {"[1]": {"assay": "Decomposition of pure doxorubicin in PBS (pH 6.9/25° C.) at 37° C.", "conditions": "normal phosphate buffer"}, "[2]": {"assay": "Solubility of the drug"}, "[3]": {"assay": "Decomposition of doxorubicin at pH 7.4 versus pH<4", "excerpt": "The decomposition rate of doxorubicin at physiological pH (pH 7.4) versus its decomposition rate at pH<4 makes analysis of the system difficult."}},
  "data": [
    {"smiles": "COc1cccc2c1C(=O)c1c(O)c3c(c(O)c1C2=O)C[C@@](O)(C(=O)CO)C[C@@H]3O[C@H]1C[C@H](N)[C@H](O)[C@H](C)O1", "note": "[doxorubicin]", "values": [
      {"measurement": "doxorubicin disappears", "setting": "[1]; in 2 weeks", "value": "about 74%"},
      {"measurement": "half-life", "setting": "[1]; phosphate buffer (PBS), pH 6.9, exponential decomposition during first ten days, read-out: half decay (T1/2) of doxorubicin (converted)", "value": "~108", "unit": "h"},
      {"measurement": "solubility of doxorubicin in acetone", "setting": "[2]; acetone", "value": "high solubility"},
      {"measurement": "solubility of doxorubicin in aqueous solutions", "setting": "[2]; aqueous solutions, orange precipitate seen after day 9", "value": "limited solubility"},
      {"measurement": "decomposition of doxorubicin at pH 7.4 compared with pH<4", "setting": "[3]; known concentration of doxorubicin, FIG. 44", "value": "increased decomposition at physiological pH"},
      {"measurement": "stability of doxorubicin as a function of pH", "setting": "[3]; pH<4 (pH ~3.4)", "value": "most stable at this pH"}
    ]}
  ]
}
